Tested on: VA-ES-BJ tumor spheroid viability
Test: Anticancer human tumor VA-ES-BJ cell line growth inhibition;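 further: spheroids exposed to compounds for seven days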;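 on viability, T/C: percent of DMSO vehicle control viability so 100% = untreated growth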
Conditions: spheroids with HUVEC and MSC; for IC50: curve of first compound; for viability, T/C: stronger effect = lower value
Source text: Multicellular complex tumor spheroid response to DNA repair inhibitors in combination with DNA-damaging drugs
This study explores the anticancer activities of DNA-damaging drugs and inhibitors of DNA damage repair, both as single agents and in combinations. Complex tumor spheroids comprised of malignant cells, endothelial cells and mesenchymal stem cells served as an in vitro model for human solid tumors. This model system incorporates physiologically relevant features and patient-derived or established malignant cell lines with clinically relevant genetic alterations from many tumor types. Twenty-six patient-derived or established malignant cell lines were evaluated representing sarcoma, melanoma, small cell lung cancer (SCLC), non-small cell lung cancer (NSCLC), as well as bladder, ovarian and pancreatic cancers. The concentration ranges selected for each drug and investigational agent were based upon clinically achievable concentrations if the clinical Cmax of the agent was known.
Compounds. The drugs and compounds olaparib (NSC753686), talazoparib (NSC767125), berzosertib (NSC777718), elimusertib (NSC800525), nedisertib (NSC802822), VX-984 (NSC792969), AZD-1390 (NSC803789), temozolomide (NSC362856), topotecan (NSC609699), trabectedin (NSC813783), staurosporine (NSC755774), and gemcitabine (NSC613327) were obtained from the National Cancer Institute (NCI) Developmental Therapeutics Program Chemical Repository. The FDA-approved anticancer drug set is available from the Developmental Therapeutics Program at https://dtp.cancer.gov/organization/dscb/obtaining/available_plates.htm. […] The stock solutions were prepared in dimethyl sulfoxide (DMSO, Sigma-Aldrich, St. Louis, MO, cat. D2650) at 400-fold the tested concentration and stored at -70 degrees C. Prior to their use, the stock solutions were diluted in fresh medium and the final DMSO concentration in the assay was 0.25% (v/v). All drugs and investigational agents were tested over a range starting from a high concentration at or near the clinical Cmax and decreasing in half-log increments. If the clinical Cmax for an agent had not been determined, the highest concentration tested was 10 microM.
Cell Lines. The patient-derived cancer cell (PDC) lines: 156681-154-R-J1-PDC, 283228-195-R-J1-PDC, 287954-098-R-J1-PDC, 292921-168-R-J2-PDC, 349418-098-R-PDC, 425362-245-T-J1-PDC, 556581-035-R-J1-PDC, and BL0293-F563-PDC were received from the NCI Patient-Derived Models Repository (PDMR, https://pdmr.cancer.gov). The established cell lines HS-SY-2 (RRID:CVCL_8719), MPNST, and SYO-1 (RRID:CVCL_7146) were obtained from the Sloan Kettering Institute. The alveolar soft parts sarcoma cell line ASPS-1 (RRID:CVCL_S738) was established at the NCI and grown from internal seed stocks. The following established cell lines were purchased from the American Type Culture Collection (ATCC, Manassas, VA): G-401 (ATCC, cat. CRL-1441, RRID:CVCL_0270), SW982 (ATCC, cat. HTB-93, RRID:CVCL_1734), VA-ES-BJ (ATCC, cat. CRL-2138, RRID:CVCL_1785), NCI-H719 (ATCC, cat. CRL-5837, RRID:CVCL_1582), NCI-H196 (ATCC, cat. CRL-5823, RRID:CVCL_1509), NCI-H841 (ATCC, cat. CRL-5845, RRID:CVCL_1595), NCI-H1618 (ATCC, cat. CRL-5879, RRID:CVCL_1480), NCI-H1876 (ATCC, cat. CRL-5902, RRID:CVCL_1503), DMS 114 (ATCC, cat. CRL-2066; RRID:CVCL_1174), NCI-H211 (ATCC, cat. CRL-5824; RRID:CVCL_1529), and SW 1271 (ATCC, cat. CRL-2177, RRID:CVCL_1716). The small cell lung cancer cell line COR-L88 was purchased from Sigma-Aldrich (cat. 92031917-1VL, RRID:CVCL_1141). The non-small cell lung cancer cell lines NCI-H226 (RRID:CVCL_1544) and NCI-H322M (RRID:CVCL_1557) were established at the NCI and grown from internal seed stocks. Pooled donor human umbilical vein endothelial cells (HUVEC, Lonza, cat. CC-2519) and human mesenchymal stem cells (hMSC, Lonza, cat. PT-2501) were purchased from Lonza (Walkersville, MD).
Cell Culture. All cells were maintained in an incubator at 37 degrees C and 5% CO2 with 95% humidity. […]

[1] = second compound 0.003 µM, first compound 0.00949 µM
[2] = second compound 0.003 µM, first compound 0.03 µM
[3] = second compound 0.003 µM, first compound 0.0949 µM
[4] = second compound 0.003 µM, first compound 0.3 µM
[5] = second compound 0.003 µM, first compound 0.949 µM
[6] = second compound 0.003 µM, first compound 3 µM
[7] = second compound 0.00949 µM, first compound 0.00949 µM
[8] = second compound 0.00949 µM, first compound 0.03 µM
[9] = second compound 0.00949 µM, first compound 0.0949 µM
[10] = second compound 0.00949 µM, first compound 0.3 µM
[11] = second compound 0.00949 µM, first compound 0.949 µM
[12] = second compound 0.00949 µM, first compound 3 µM
[13] = second compound 0.03 µM, first compound 0.00949 µM
[14] = second compound 0.03 µM, first compound 0.03 µM
[15] = second compound 0.03 µM, first compound 0.0949 µM
[16] = second compound 0.03 µM, first compound 0.3 µM
[17] = second compound 0.03 µM, first compound 0.949 µM
[18] = second compound 0.03 µM, first compound 3 µM
[19] = second compound 0.0949 µM, first compound 0.00949 µM
[20] = second compound 0.0949 µM, first compound 0.03 µM
[21] = second compound 0.0949 µM, first compound 0.0949 µM
[22] = second compound 0.0949 µM, first compound 0.3 µM
[23] = second compound 0.0949 µM, first compound 0.949 µM
[24] = second compound 0.0949 µM, first compound 3 µM
[25] = second compound 0.3 µM, first compound 0.00949 µM
[26] = second compound 0.3 µM, first compound 0.03 µM
[27] = second compound 0.3 µM, first compound 0.0949 µM
[28] = second compound 0.3 µM, first compound 0.3 µM
[29] = second compound 0.3 µM, first compound 0.949 µM
[30] = second compound 0.3 µM, first compound 3 µM

Row | SMILES | IC50 (second compound 0.003 µM) | IC50 (second compound 0.00949 µM) | IC50 (second compound 0.03 µM) | IC50 (second compound 0.0949 µM) | IC50 (second compound 0.3 µM) | viability, T/C [3] | viability, T/C [4] | viability, T/C [5] | viability, T/C [6] | viability, T/C [9] | viability, T/C [10] | viability, T/C [11] | viability, T/C [12] | viability, T/C [15] | viability, T/C [16] | viability, T/C [17] | viability, T/C [18] | viability, T/C [21] | viability, T/C [22] | viability, T/C [23] | other results
1 | CNCc1ccc(-c2cc(-c3nc(-c4ccc(S(=O)(=O)C(C)C)cc4)cnc3N)on2)cc1 + CC[C@@]1(O)C(=O)OCc2c1cc1n(c2=O)Cc2cc3c(CN(C)C)c(O)ccc3nc2-1 | 258 nM | 139 nM | < 9.49 nM | < 9.49 nM | < 9.49 nM | 71.7% | 49.4% | 15.1% | 6.06% | 59% | 30.7% | 12.4% | 4.37% | 38.1% | 27.9% | 9.05% | 3.26% | 13.8% | 10.3% | 5.27% | viability, T/C [1]: 90.9%; viability, T/C [2]: 83%; viability, T/C [7]: 86.5%; viability, T/C [8]: 81.1%; viability, T/C [13]: 42.3%; viability, T/C [14]: 42.3%; viability, T/C [19]: 8.5%; viability, T/C [20]: 10%; viability, T/C [24]: 2.78%; viability, T/C [25]: 4.36%; viability, T/C [26]: 5.51%; viability, T/C [27]: 5.44%; viability, T/C [28]: 4.99%; viability, T/C [29]: 4.31%; viability, T/C [30]: 3.27%
2 | Cn1ncnc1[C@H]1c2n[nH]c(=O)c3cc(F)cc(c23)N[C@@H]1c1ccc(F)cc1 + CC[C@@]1(O)C(=O)OCc2c1cc1n(c2=O)Cc2cc3c(CN(C)C)c(O)ccc3nc2-1 | 150 nM | < 9.49 nM | < 9.49 nM | < 9.49 nM | < 9.49 nM | 57.9% | 44.7% | 22.9% | 5.42% | 28.4% | 21% | 10.6% | 6.84% | 7.12% | 6.39% | 4.2% | 3.72% | 8.32% | 8.9% | 4.82% | viability, T/C [1]: 70.4%; viability, T/C [2]: 54.7%; viability, T/C [7]: 43.9%; viability, T/C [8]: 33.5%; viability, T/C [13]: 9.86%; viability, T/C [14]: 8.29%; viability, T/C [19]: 7.58%; viability, T/C [20]: 7.39%; viability, T/C [24]: 3.16%; viability, T/C [25]: 9.11%; viability, T/C [26]: 9.07%; viability, T/C [27]: 8.75%; viability, T/C [28]: 9.02%; viability, T/C [29]: 8.91%; viability, T/C [30]: 7.66%
3 | O=C(c1cc(Cc2n[nH]c(=O)c3ccccc23)ccc1F)N1CCN(C(=O)C2CC2)CC1 + CC[C@@]1(O)C(=O)OCc2c1cc1n(c2=O)Cc2cc3c(CN(C)C)c(O)ccc3nc2-1 | 12000 nM | 2080 nM | < 94.9 nM | < 94.9 nM | < 94.9 nM | 79.5% | 86.5% | 84.7% | 72.9% | 54.4% | 62% | 56.3% | 46% | 11.3% | 11.9% | 11.7% | 8.85% | 6.59% | 7.45% | 7.51% | viability, T/C (second compound 0.003 µM, first compound 9.49 µM): 54.3%; viability, T/C (second compound 0.003 µM, first compound 30 µM): 35.1%; viability, T/C (second compound 0.00949 µM, first compound 9.49 µM): 30.9%; viability, T/C (second compound 0.00949 µM, first compound 30 µM): 13.7%; viability, T/C (second compound 0.03 µM, first compound 9.49 µM): 4.72%; viability, T/C (second compound 0.03 µM, first compound 30 µM): 3.5%; viability, T/C [24]: 7.62%; viability, T/C (second compound 0.0949 µM, first compound 9.49 µM): 6.91%; viability, T/C (second compound 0.0949 µM, first compound 30 µM): 2.51%; viability, T/C [27]: 7.75%; viability, T/C [28]: 8%; viability, T/C [29]: 8.29%; viability, T/C [30]: 8.19%; viability, T/C (second compound 0.3 µM, first compound 9.49 µM): 7.94%; viability, T/C (second compound 0.3 µM, first compound 30 µM): 4.56%

— PubChem BioAssay AID1845217 (Molecular Pharmacology Branch, DTP, NCI, 2023)
